Experimental data published in PubChem BioAssay (NCI).
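Interpolation was linear, between the two tested concentrations surrounding the appropriate level; five concentrations were tested over 48 hours in 96-well plates. GI50 is the concentration that inhibits growth by half. Definition used: TGI = concentration required for complete inhibition of growth.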

Experiments:
Assay in all cases: inhibition of tumour cell growth, NCI panel, 48 h
[1] = tested on: NCI-H522 lung
[2] = tested on: HCT-15 colon
[3] = tested on: M14 melanoma
[4] = tested on: SK-MEL-5 melanoma
[5] = tested on: A549 NSCLC
[6] = tested on: RPMI-8226 leukemia
[7] = tested on: CCRF-CEM leukemia
[8] = tested on: SW-620 colon
[9] = tested on: SF-295 CNS
[10] = tested on: A498 renal

For COc1cc2c(cc1OCCCOc1cc3c(cc1OC)C(=O)N1CC(F)(F)C[C@H]1C=N3)N=C[C@@H]1CC(F)(F)CN1C2=O, the GI50 [1] was 0.228 µM, the TGI [1] was 1.03 µM and the GI50 [2] was 10.4 µM. It also gave a TGI [2] of 50.6 µM, a GI50 [3] of 0.698 µM and a TGI [3] of 3.7 µM. For the same molecule, the GI50 [4] was 1.15 µM, the TGI [4] was 2.39 µM and the GI50 [5] was 3.79 µM. The TGI [5] was > 100 µM, the GI50 [6] was 1.64 µM and the TGI [6] was 5.79 µM. For the same molecule, the TGI [7] was 1.06 µM, the GI50 [8] was 0.469 µM and the TGI [8] was 4.03 µM. For the same molecule, the GI50 [9] was 0.0635 µM, the TGI [9] was 0.539 µM and the GI50 [10] was 1.03 µM. It also gave a TGI [10] of 2.65 µM.
NCc1ccc(O)c(O)c1O was tested, and the TGI [1] was > 90.9 µM, the TGI [2] was 47.7 µM and the TGI [3] was 27.7 µM. The TGI [4] was 56 µM, the TGI [5] was 63.2 µM and the TGI [6] was 64.8 µM. For the same molecule, the TGI [7] was 56.6 µM, the TGI [8] was 43.3 µM and the TGI [9] was > 57.7 µM. The TGI [10] was > 100 µM.
CN(C)C=O.CN(C)C=O.CN1C(C(=O)Nc2ccccn2)=C([O-])c2ccccc2S1(=O)=O.CN1C(C(=O)Nc2ccccn2)=C([O-])c2ccccc2S1(=O)=O.[Cu+2] was tested, and the TGI [1] was > 100 µM, the TGI [2] was > 100 µM and the TGI [3] was > 100 µM. For the same molecule, the TGI [4] was 36.8 µM, the TGI [5] was > 100 µM and the TGI [6] was > 100 µM. For the same molecule, the TGI [8] was > 100 µM, the TGI [9] was > 100 µM and the GI50 [10] was 24.2 µM. The TGI [10] was 65.3 µM.
CCc1cc(C)cc2[n+]1CC=C2C was tested, and the TGI [1] was > 100 µM, the TGI [3] was > 100 µM and the TGI [4] was > 100 µM. For the same molecule, the TGI [5] was > 100 µM, the TGI [8] was > 100 µM and the TGI [9] was > 100 µM.
With Cn1ncc2c(=O)[nH]c(-c3ccccc3)nc21 the TGI [1] was > 100 µM, the TGI [2] was > 100 µM and the TGI [3] was > 100 µM. For the same molecule, the TGI [4] was > 100 µM, the TGI [5] was > 100 µM and the TGI [6] was > 100 µM. For the same molecule, the TGI [7] was > 100 µM, the TGI [8] was > 100 µM and the TGI [9] was > 100 µM.
In the case of O=C(O)\C=C/C=C/C=C/C=C/C(=O)O, the TGI [1] is reported as > 100 µM, the TGI [2] is reported as > 100 µM and the TGI [3] is reported as > 100 µM. For the same molecule, the TGI [4] was > 100 µM, the TGI [5] was > 100 µM and the TGI [6] was > 100 µM. The TGI [7] was > 100 µM, the TGI [8] was > 100 µM and the TGI [9] was > 100 µM. For the same molecule, the TGI [10] was > 100 µM.
With NC(CCCNc1ccc(O)cc1)C(=O)O (configuration not stated) the TGI [1] was > 100 µM, the TGI [2] was > 60.7 µM and the TGI [3] was > 66.9 µM. The TGI [4] was 63.8 µM, the TGI [5] was > 100 µM and the TGI [6] was 54.8 µM. For the same molecule, the TGI [7] was > 71.1 µM, the TGI [8] was 42.7 µM and the TGI [9] was > 100 µM. For the same molecule, the TGI [10] was > 73.1 µM.
CC(C)C(C)C(O)C(O)C(C)C1CCC2C3COC(=O)C4CC(O)C(O)CC4(C)C3CCC12C (configuration not stated) was tested, and the TGI [1] was > 100 µM, the TGI [2] was > 100 µM and the TGI [3] was > 100 µM. For the same molecule, the TGI [4] was > 100 µM, the TGI [5] was > 100 µM and the TGI [7] was 67.5 µM. The TGI [8] was > 100 µM, the TGI [9] was > 100 µM and the TGI [10] was > 100 µM.
With CC1(C)CCCC2(C)C3=C(CCC12)C(=O)OC3 (configuration not stated) the TGI [1] was > 100 µM, the TGI [2] was > 100 µM and the TGI [3] was > 100 µM. The TGI [4] was > 100 µM, the TGI [5] was > 100 µM and the TGI [6] was 68.5 µM. The TGI [7] was > 100 µM, the TGI [8] was > 100 µM and the TGI [9] was > 100 µM. For the same molecule, the TGI [10] was > 100 µM.
Work on COC(=O)C12OCC34C(CC5C(C)C6=CC(=O)OC6=CC5(C)C3C(O)C1O)OC(=O)C(OC(C)=O)C24 (configuration not stated) yielded a TGI [1] of 24.6 µM, a TGI [2] of 42.5 µM and a TGI [3] of 32.8 µM. It also gave a TGI [4] of 24.9 µM, a TGI [5] of 49.9 µM and a TGI [6] of 40.5 µM. The TGI [7] was 32.4 µM, the TGI [8] was 26.2 µM and the TGI [9] was 65.7 µM. It also gave a TGI [10] of 43.9 µM.
Molecule O=C(Nc1ccc(-n2ccc3c(NC(=O)c4ccccc4)ncnc32)cc1)Nc1ccc(Cl)c(C(F)(F)F)c1 has a GI50 [1] of 1.07 µM, a TGI [1] of 2.89 µM and a GI50 [2] of 0.765 µM. The TGI [2] was 2.19 µM, the GI50 [3] was 1.66 µM and the TGI [3] was 3.64 µM. It also gave a GI50 [4] of 2.43 µM, a TGI [4] of 11.3 µM and a GI50 [5] of 1.67 µM. The TGI [5] was 3.58 µM, the GI50 [6] was 1.03 µM and the TGI [6] was 2.84 µM. For the same molecule, the GI50 [7] was 0.806 µM, the TGI [7] was 3.73 µM and the GI50 [8] was 2.17 µM. For the same molecule, the TGI [8] was 4.96 µM, the GI50 [9] was 1.41 µM and the TGI [9] was 3.38 µM. For the same molecule, the GI50 [10] was 1.51 µM and the TGI [10] was 3.65 µM.
For N=C(N)SC(c1ccccc1)c1ccccc1, the TGI [1] was 34.8 µM, the TGI [2] was 40.7 µM and the TGI [3] was 23.7 µM. It also gave a TGI [4] of 32.2 µM, a TGI [5] of 95.2 µM and a TGI [6] of 31.7 µM. It also gave a TGI [7] of 32.1 µM, a TGI [8] of 44.6 µM and a TGI [9] of 34.7 µM. For the same molecule, the TGI [10] was 36.6 µM.
In the case of Cc1cc(N2CCCCC2)nc(NCc2cc(Nc3ccnc4cc(Cl)ccc34)ccc2F)n1, the GI50 [1] is reported as 1.71 µM, the TGI [1] is reported as 3.37 µM and the GI50 [2] is reported as 1.84 µM. The TGI [2] was 3.8 µM, the GI50 [3] was 1.92 µM and the TGI [3] was 3.69 µM. It also gave a GI50 [4] of 1.05 µM, a TGI [4] of 2.25 µM and a GI50 [5] of 1.7 µM. For the same molecule, the TGI [5] was 3.22 µM, the GI50 [6] was 1.88 µM and the TGI [6] was 4.55 µM. For the same molecule, the GI50 [7] was 0.921 µM, the TGI [7] was 4.33 µM and the GI50 [8] was 1.45 µM. For the same molecule, the TGI [8] was 3.59 µM, the GI50 [9] was 1.32 µM and the TGI [9] was 2.7 µM. For the same molecule, the GI50 [10] was 0.178 µM and the TGI [10] was 0.999 µM.
With NS(=O)(=O)c1ccc(C(=O)O)cc1 the TGI [1] was > 100 µM, the TGI [2] was > 100 µM and the TGI [3] was > 100 µM. For the same molecule, the TGI [4] was > 100 µM, the TGI [5] was > 100 µM and the TGI [6] was > 100 µM. The TGI [7] was > 100 µM, the TGI [8] was > 100 µM and the TGI [9] was > 100 µM. For the same molecule, the TGI [10] was > 100 µM.
For Cc1nc2ccccc2c(=O)n1Nc1ccc(C(=O)O)cc1, the TGI [1] was > 100 µM, the TGI [2] was > 100 µM and the TGI [4] was > 100 µM. The TGI [5] was > 100 µM, the TGI [6] was > 100 µM and the TGI [7] was > 100 µM. The TGI [8] was > 100 µM, the TGI [9] was > 100 µM and the TGI [10] was > 100 µM.
With O=C1CC(c2ccccc2)NCCCCN2CC(CN1)C(C(O)c1ccccc1)C2=O (configuration not stated) the TGI [1] was > 100 µM, the TGI [2] was > 100 µM and the TGI [3] was > 100 µM. For the same molecule, the TGI [4] was > 100 µM, the TGI [5] was > 100 µM and the TGI [7] was > 100 µM. The TGI [8] was > 100 µM, the TGI [9] was > 100 µM and the TGI [10] was > 100 µM.
For CC(C)(c1ccccc1)c1ccc(Oc2ccc3c(c2)-c2nc-3nc3[nH]c(nc4nc(nc5[nH]c(n2)c2ccc(Oc6ccc(C(C)(C)c7ccccc7)cc6)cc52)-c2cc(Oc5ccc(C(C)(C)c6ccccc6)cc5)ccc2-4)c2ccc(Oc4ccc(C(C)(C)c5ccccc5)cc4)cc32)cc1, the TGI [1] was > 100 µM, the TGI [3] was > 100 µM and the TGI [4] was > 100 µM. The TGI [5] was > 100 µM, the TGI [6] was > 100 µM and the TGI [7] was > 100 µM. For the same molecule, the TGI [8] was > 100 µM and the TGI [10] was > 100 µM.
With COc1ccc(C(=O)NNC(=O)c2nsc3ccccc23)cc1 the TGI [2] was > 100 µM, the TGI [3] was > 100 µM and the TGI [4] was > 100 µM. The TGI [5] was > 100 µM, the TGI [6] was > 100 µM and the TGI [7] was > 100 µM. For the same molecule, the TGI [8] was > 100 µM.
Nc1ccc([As](=O)(O)O)cc1 was tested, and the TGI [1] was > 100 µM, the TGI [2] was > 100 µM and the TGI [3] was > 100 µM. For the same molecule, the TGI [4] was > 100 µM, the TGI [5] was > 100 µM and the TGI [7] was > 100 µM. For the same molecule, the TGI [8] was > 100 µM, the TGI [9] was > 100 µM and the TGI [10] was > 100 µM.
For Cc1cccc(NC(N)=S)c1, the TGI [1] was > 100 µM, the TGI [2] was > 100 µM and the TGI [3] was > 100 µM. For the same molecule, the TGI [7] was > 100 µM and the TGI [10] was > 100 µM.
With COc1ccc2c(c1)C(=O)c1c-2n(CCCCl)c(=O)c2cc([N+](=O)[O-])ccc12 the GI50 [1] was < 0.0265 µM, the TGI [1] was 0.963 µM and the GI50 [2] was 0.0575 µM. For the same molecule, the TGI [2] was > 100 µM, the TGI [3] was 0.361 µM and the GI50 [4] was 0.498 µM. The TGI [4] was 2.07 µM, the GI50 [5] was 0.196 µM and the TGI [5] was > 100 µM. The GI50 [6] was 0.075 µM, the TGI [6] was 1.6 µM and the GI50 [7] was < 0.01 µM. For the same molecule, the TGI [7] was 0.212 µM, the GI50 [8] was 0.123 µM and the GI50 [9] was < 0.01 µM. The TGI [9] was 0.21 µM and the GI50 [10] was 1.39 µM.
